Assay results taken from patent US20050113413A1, “Naphthalene-1,5-disulfonic acid salts of a substituted 4-amino-1-(pyridylmethyl)piperidine compound” (priority 2003, published 2005).

Key:
[1] = system: rat bladder (volume-induced bladder contractions); test: In vivo rat bladder assay (volume-induced bladder contraction amplitude); set-up: species or system Sprague-Dawley rats; conditions: anesthetized female rats, intravenous, normalized to atropine response
Procedure: Female Sprague-Dawley rats (Harlan, Indianapolis, Ind.) weighing 200 to 300 g were anesthetized with urethane (1.5 g/kg, s.c., Sigma, St. Louis, Mo.), with a supplement of 0.25 g/kg, s.c. urethane as needed. Urethane was administered at a concentration of 0.25 g/mL.
Rats were prepared for surgery by shaving the neck and abdomen and cleansing with ethanol wipes. First, an incision was made on the ventral surface. An intravenous catheter was placed by isolating and ligating the femoral vein. […]
Thereafter, an intravenous dose of the test compound was administered and changes in VIBCAmp were recorded for 15 minutes. Atropine (0.1 mg/kg) was then administered intravenously (1 mL/kg) as a positive control and VIBCAmp and data was recorded for an additional 15 minutes. […]
Alternatively, after the vehicle, increasing cumulative intravenous doses of the test compound were administered at 15 minute intervals (1 mL/kg) and changes in VIBCAmp were recorded for 15 minutes. […]
The average VIBCAmp during the 5-15 minute period after test compound and atropine was determined and subtracted from the average VIBCAmp during the 5-15 minute post-vehicle period to obtain the test compound or atropine-induced change in VIBCAmp. […]

[2] = Chemical stability of salt forms (change in purity by HPLC upon storage); assay type: physicochemical; conditions: 40° C. and 75% relative humidity, 7 days, HPLC Method D
Procedure: The chemical stability of each salt form was evaluated by determining the change in purity of the sample upon storage of the salt form at 40° C.
Prior to storage, each salt form was analyzed by HPLC (Method D) to determine sample purity and in particular, to determine the amount of the following impurities present in the sample: • A. 3-[4-{N-[7-(3-(S)-1-Carbamoyl-1,1-diphenylmethyl)pyrrolidin-1-yl)hept-1-yl]-N-(isopropyl)amino}piperidin-1-ylmethyl]-4-methoxy-1-methylpyridinium Salt (Impurity A); • B. 4-{N-[7-(3-(S)-1-Carbamoyl-1,1-diphenylmethyl)pyrrolidin-1-yl)hept-1-yl]-N-(isopropyl)amino}-1-(4-oxo-1,4-dihydropyrid-3-ylmethyl)piperidine (Impurity B).
Approximately 50-100 mg of the salt form was then placed in two heat sealed low density polyethylene bags. The bags were then placed into a stability chamber that was previously set at 40° C. and 75% relative humidity. After 7 days, the bags were removed and the contents were analyzed by HPLC.

COc1ccncc1CN1CCC(N(CCCCCCCN2CC[C@@H](C(C(N)=O)(c3ccccc3)c3ccccc3)C2)C(C)C)CC1 [Example 6]
ID50 (dose required to produce 50% of the maximal response), VIBCAmp [1]: less than or equal to 0.1 mg/kg
% Change in Impurity A [2]: <0.1%
% Change in Impurity B [2]: <0.1%
% Change in Purity of Salt ([2]; heat sealed polyethylene bags): 1.2%
